Laboratory results: article doi:10.1101/2025.05.14.653428v1 (bioRxiv, 2025)
Where a SMILES comes first, the peptide text is derived from it.

Experiments:
[1] = Evaluation of toxicity in vivo; design: species or system mice; conditions: 10 days intraperitoneal, 1 mg/mouse/day, N=10/group
TGF-β in hepatocytes = test: TGF-β mRNA and protein in cultured hepatocytes; type: cell-based, murine; conditions: hepatocytes on vitronectin, 24 hours
Huh-7 hepatoma cell line = test: TGF-β protein in Huh-7 cells; type: cell-based; conditions: cultured on vitronectin, 50μg/mL, 24 hours
[2] = GLQGE detection in plasma after injection; type: in vivo, mice; conditions: for time to enter the circulation / time until cleared from the bloodstream: LC-MS/MS; for Tmax: mouse
hepatocytes = type: cell-based, murine; conditions: 50μg/mL, 24 hours, flow cytometry
pFAK in hepatocytes = pFAK in hepatocytes by western blotting; type: cell-based, murine; conditions: suspension without FCS 2 hours, 50μg/mL for 30 minutes

Row | Molecule | blood values of kidney function [1] | blood values of liver function [1] | blood values of pancreas function [1] | complete blood count [1] | TGF-β mRNA expression in wildtype hepatocytes after FAK inhibition (TGF-β in hepatocytes; 5μM) | TGF-β protein in Huh-7 (Huh-7 hepatoma cell line) | TGF-β mRNA in cultured hepatocytes compared to GLOGE (TGF-β in hepatocytes; 50μg/mL, qPCR) | time to enter the circulation ([2]; i.p. injection of 0.5 mg GLQGE) [min] | time until cleared from the bloodstream ([2]; i.p. injection of 0.5 mg GLQGE) [min] | Tmax ([2]; ip, 0.5 mg/mouse) [min] | Tmax ([2]; sc, 1 mg/mouse) [min] | time to enter the circulation ([2]; s.c. injection of 1 mg GLQGE) [min] | time until cleared from the bloodstream ([2]; s.c. injection of 1 mg GLQGE) [min] | total TGF-β protein in hepatocytes (TGF-β in hepatocytes; 50μg/mL, MLEC bioassay) | TGF-β mRNA expression in cultured hepatocytes compared to untreated control (TGF-β in hepatocytes; 50μg/mL, qPCR) | hepatocyte apoptosis (annexinv-propidium-iodide staining) (hepatocytes) | hepatocyte proliferation (ki67 staining) (hepatocytes) | pFAK in hepatocytes from β3 global knockout mice (pFAK in hepatocytes) | pFAK in hepatocytes (pFAK in hepatocytes; western blotting)
1 | GLOGE (head to tail) | no significant abnormalities | no significant abnormalities | no significant abnormalities | no significant abnormalities | – | – | – | – | – | – | – | – | – | – | – | – | – | – | –
2 | CS(=O)(=O)c1cccc(CNc2nc(Nc3ccc4c(c3)CCC(=O)N4)ncc2C(F)(F)F)c1 [PF573228, reference compound] | – | – | – | – | rise | – | – | – | – | – | – | – | – | – | – | – | – | – | –
3 | GLNGE (head to tail) | no significant abnormalities | no significant abnormalities | no significant abnormalities | no significant abnormalities | – | reduced | diminished | – | – | – | – | – | – | – | – | – | – | – | –
4 | CC(C)C[C@@H]1NC(=O)CNC(=O)[C@H](CCC(=O)O)NC(=O)CNC(=O)[C@H](CCC(N)=O)NC1=O [GLQGE] (cyclo(EGLQG)) | no significant abnormalities | no significant abnormalities | no significant abnormalities | no significant abnormalities | – | – | – | ≤ 5 | ≤ 120 | 15 | 15 | ≤ 5 | ≤ 120 | suppressed | diminished | did not affect | did not affect | increase | increased
